Results as given in patent publication US11266686B2, “Metal complexes and methods of treatment” (PROCYPRA THERAPEUTICS LLC, priority 2013, dated 2022).

Experiment: Pharmacokinetics in mice after oral administration, plasma and brain by LC/MS/MS
Details: 30 mg/kg CuXTSM API oral; for Brain AUC0-24h / Brain AUC0-inf / Brain Cmax / Brain Tmax / Brain t½ (number of time points): mouse brain; for Brain t½ (number of time points) / Plasma t½ (number of time points): bracket = number of time points; for Plasma Ke / Plasma MRT / Plasma AUC0-24h / Plasma AUC0-inf / Plasma Cmax / Plasma Tmax / Plasma t½ (number of time points): mouse plasma; for Plasma AUC0-24h / Plasma AUC0-inf / Plasma Cmax / Plasma Tmax: CuATSM in SSV, NCDs in water
Procedure: CuATSM was suspended in “Standard Suspension Vehicle” (SSV), consisting of 0.9% (w/v) NaCl, 0.5% (w/v) sodium carboxymethylcellulose, 0.5% (v/v) benzyl alcohol, and 0.4% (v/v) Tween 80 in deionized water. All other test compounds were suspended in sterile water. Samples were prepared by adding one of the compounds to the liquid vehicle (water or SSV) in a vial and then vortexing the mixture for 3 min with a stir bar inside. If the powdered sample was not completely wetted or not completely suspended, the sample was vortexed for another minute. If wetting was still incomplete, the vial was sonicated until a fully wetted suspension was obtained. Between doses, the sample was stirred on medium speed and then vortexed for an additional 20 s immediately before the next dose was removed from the vial. All dosing was completed from a single preparation of the suspension within 60 min of adding the compound to water or SSV.
Mice were deprived of pelleted food overnight, during which time 10% dextrose, as Dextroput, was provided in tap water, after which the test items were administrated orally by gavage in water or SSV. […] The blood samples were kept on ice after sampling and centrifuged at +4° C., 1800×g for 5 min to prepare plasma. Plasma samples were extracted and transferred into pre-labelled Eppendorf test tubes (50 μl exact in one vial, and the remaining in a second vial) and frozen at −20° C. The samples were transported on dry ice to the analysis site. Following blood sampling, mice were euthanized by cervical dislocation, and then brains were collected through opened skulls. The brains were weighed and placed in test tubes and placed on water ice. Phosphate-buffered saline (PBS, pH 7.4), 4 ml per 1 g of brain tissue, was added to the test tube and brains were homogenized by using Ultra-Turrax T25 homogenizer/S25N-10G (Setting 2, 9500 rpm, approximately 10 s). The homogenate was frozen at −20° C. immediately after homogenization. The samples were transported on dry ice to the analysis site.
Dosed mice were studied in triplicate for each of the seven time points, totaling 21 mice dosed for each studied compound. Plasma samples and brain homogenates from four untreated animals were also obtained. The plasma samples were thawed at room temperature (RT), mixed with 2-fold volume of acetonitrile, shaken and centrifuged for 10 min at 13 000×g (Heraeus Pico 17 centrifuge), after which supernatants were transferred into glass vials. The brain homogenate samples were mixed with 2-fold volume of acetonitrile:methanol, shaken, ultrasonicated for 20 min, and centrifuged for 10 min at 13 000×g (Heraeus Pico 17 centrifuge), after which supernatants were transferred into glass vials. […] Quality control (QC) samples were prepared for concentrations 10, 100 and 1000 ng/ml in plasma or brain homogenates.
Elution was with gradient of 0.5% formic acid/acetonitrile (99:1) increased step-wise to (5:95).
The pharmacokinetic parameters for study compounds in plasma and brain were calculated using standard non-compartmental methods. The elimination phase half-life (t½) was calculated by least-squares regression analysis of the terminal linear part of the log concentration-time curve. […] The maximum concentration (Cmax) and the time to Cmax (Tmax) were derived directly from the concentration data. Mean Residence Time, MRT, and elimination rate constant, Ke, were also calculated from the concentration vs. time data of plasma samples.

| Brain:plasma-ratio (Cmax-based) (mouse) | Structure (SMILES) | Brain AUC0-24h [ng·min/g] | Brain AUC0-inf [ng·min/g] | Brain Cmax [ng/g] | Brain Tmax [h] | Brain t½ (number of time points) | Plasma Ke [min⁻¹] | Plasma MRT [h] | Plasma AUC0-24h [ng·min/mL] | Plasma AUC0-inf [ng·min/mL] | Plasma Cmax [ng/mL] | Plasma Tmax [h] | Plasma t½ (number of time points) |
| --- | --- | --- | --- | --- | --- | --- | --- | --- | --- | --- | --- | --- | --- |
| – | CNC1=NN=C(C)C(C)=NN=C(NC)[S][Cu][S]1.O=C(O)CC(O)(CC(=O)O)C(=O)O [CuATSM:citric acid (1:1)] | 15435 | 15563 | 77.0 | 1 | 218 (4) min | 0.0034 | 5.25 | 8292 | 8366 | 14.5 | 1 | 204 (3) min |
| 2.1 | CNC1=NN=CC(C)=NN=C(NC)[S][Cu][S]1.O=C1NS(=O)(=O)c2ccccc21.O=C1NS(=O)(=O)c2ccccc21 [CuPTSM:saccharin (1:2)] | 62832 | 72025 | 189 | 0.5 | 487 (2) min | 0.0016 | 7.9 | 60004 | 68278 | 91.5 | 1 | 439 (2) min |
